The values below come from publication PMC7768359, “Synthesis of Platinum(II) Complexes with Some 1-Methylnitropyrazoles and In Vitro Research on Their Cytotoxic Activity” (Pharmaceuticals, 2020).

The nature of series [1]: Reaction with L-glutathione, UV absorbance at 260 nm. It is filed as physicochemical. The note with it: 2 mM GSH, pH 7.4, 37 °C. The text has this:
Platinum compounds have a strong ability to react with sulfur donor ligands. […] These side reactions are considered as playing an important role in mechanisms of tumor resistance to platinum drugs, their inactivation, and toxic side effects. The two most important endogenous thiols to which platinum complexes can bind after intravenous administration or after they enter the cancer cell are reduced L-glutathione (GSH) and metallothionein (MT). In the present work, we investigated reactions of GSH with compounds 1 and 2, measuring the UV absorbance at 260 nm (which indicates the formation of Pt–S and S–S bonds) as a function of time using a double-beam spectrophotometer (Figure 6). […] Despite the better solubility of tested complexes in acetone, dioxane was used in this experiment due to its lack of absorption of UV radiation at 260 nm in contrast to acetone that strongly absorbs at this wavelength preventing a correct measurement of absorbance changes.
The solutions of compounds 1 or 2 in dioxane (30 µL) at 60 mM concentration were added to 3 mL of 2 mM solution of GSH (reduced L-glutathione) previously saturated with argon in the medium containing 10 mmol/L NaCl and 10 mmol/L Tris xHCl buffer, pH 7.4, warmed to 37 °C, reaching a final concentration of […] of the platinum complex. The reaction progress during incubation at 37 °C was monitored using UV absorption spectrometry at 260 nm. […]

The subject of the next series is HL-60 cells. Briefly: Determination of apoptosis by Annexin V / PI staining. It is filed as cell-based, human. Particulars: 48 h. The procedure: To establish how compounds 1 and 2 influence the cell cycle and cell death, the HL-60 human promyelocytic leukemia cell line was used. The results are outlined in the Figure 7 and Figure 8, respectively. […] This led to disturbances in the cell cycle progression, expressed as a significant decrease in G0/G1 and S phase, compared to the untreated control (Figure 7).
The HL-60 cells and compounds tested were prepared in the same way as for analysis of the cell cycle distribution. The cells were also exposed to camptothecin (2 µg/mL; Sigma-Aldrich, Steinheim, Germany) as a positive control of apoptosis induction. After 48 h of incubation, or in the case of camptothecin after 24 h, the cells were collected and washed in PBS (HIIET, Wroclaw, Poland) supplemented with 2% of fetal bovine serum and counted in a hemacytometer. The cells (2 × 10^5) were washed twice in PBS. Next, cells were suspended in 200 μL of the mixture of HEPES buffer: 10 mM HEPES, 150 mM NaCl, 5 mM KCl, 1 mM MgCl2, 1.8 mM CaCl2, (HIIET, Wroclaw, Poland) and Annexin V-FITC (Alexis Biochemicals, San Diego, CA, USA), each time freshly prepared according to the manufacturer’s recommendations. After 15 min of incubation in darkness at room temperature, propidium iodide (PI) solution (0.1 mg/mL) was added prior to analysis to give a final concentration of 10 µg/mL. […] Data were analyzed in a BD FACS Diva 6.2 program. […]

Series [2] in a line: Qualitative solubility in water. The format is physicochemical. The procedure: A solution of 254 mg (2 mmol) of 1-methyl-4-nitropyrazole in 15 mL of warm water was mixed with a solution of 415 mg (1 mmol) of K2PtCl4 in 5 mL of water. The reaction mixture was maintained in darkness at 25 °C and monitored periodically by TLC until the absence of free ligand (app. 3 weeks). Then, the yellow precipitate was filtered off and dried, giving 480 mg (92%) of the crude mixture, which mainly consisted of two individual Pt complexes (TLC). […] Combustion and spectral analyses for the cis complex 1: Elemental analysis for formula C8H10N6O4Cl2Pt of compound 1: Calculated/Found (%): C 18.47/18.80, H 1.94/1.89, N 16.16/15.97, Cl 13.63/13.70. ^1H NMR (300.15 MHz, acetone-d6): δ[ppm] […] Combustion and spectral analyses for the trans complex 2: Elemental analysis for formula C8H10N6O4Cl2Pt of the trans-complex 2: Calculated/Found (%): C 18.47/18.76, H 1.94/1.84, N 16.16/15.86, Cl 13.63/13.93. ^1H NMR (300.15 MHz, acetone-d6): δ[ppm] […] Analysis of Mass Spectrum (ESI-MS) of both complexes 1 and 2: The calculated value of the parent peak mass for the formula C8H10N6O4Cl2Pt was 518.9789 u.

As to `Cn1cc([N+](=O)[O-])c[n+]1[Pt@SP2-2]([Cl])([Cl])[n+]1cc([N+](=O)[O-])cn1C` [Compound 1, cis-dichloridobis(1-methyl-4-nitropyrazole)platinum(II)], in series [1], the “half-time of the reaction with GSH” value was found to be 83 min. The “proapoptotic activity (Annexin V / propidium iodide)” value with HL-60 cells (HL-60, 80 µM) was “statistically significant increase in early and late apoptotic cells”. Further, the solubility in water entry in series [2] is “poorly in water”.

Take `Cn1cc([N+](=O)[O-])c[n+]1[Pt@SP3-2]([Cl])([Cl])[n+]1cc([N+](=O)[O-])cn1C` [Compound 2, trans-dichloridobis(1-methyl-4-nitropyrazole)platinum(II)]: the “half-time of the reaction with GSH” value in series [1] came to 13 min. Moreover, the “effect on the number of necrotic and late apoptotic HL-60 cells” value in the series on HL-60 cells (compared to 0.3 µM cisplatin and control) is “did not show any substantial effect”. In addition, the solubility in water entry in series [2] is recorded as “very poorly in water”.
